From US20170305943A1, “COMPOUNDS FOR THE TREATMENT OF BACTERIAL INFECTIONS” (priority 2014, published 2017)
Values after ≈ are worked out from the molar mass of the structure shown.

Columns and labels:
Assay in all cases: Bacterial Assay: Determination of Antibacterial Activity (MIC, broth microdilution or agar dilution)
Type in all cases: cell-based
[1] = test system: Clostridium difficile (Isolate ID ATCC 9689); conditions: Clostridioides difficile, ATCC9689, 48 h, read-out: C. difficile MIC Activity Range
Summary of the method: (§1)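 MICs were set by CLSI broth microdilution or agar dilution for anaerobes, read visually after 48 hours at 37° C. under anaerobic gas packs. Medium was reinforced clostridial medium with 0.1% defibrinated horse blood; values are binned as A ≦1.01, B >1.0-4.0, C >4.0-16 μg/mL.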

[2] = test system: Clostridium difficile (Isolate ID BI-9); conditions: Clostridioides difficile, 48 h, read-out: MIC (μg/mL) C. difficile (B-I9)
Summary of the method: as §1

[3] = test system: Clostridium difficile (Isolate ID 027-01); conditions: Clostridioides difficile, 48 h, read-out: MIC (μg/mL) C. difficile (027-01)
Summary of the method: as §1

NC(=O)c1c(F)ccc(OCc2nc(-c3ccc(OC(F)(F)F)cc3)cs2)c1F [Compound 17, 2,6-difluoro-3-({4-[4-(trifluoromethoxy)phenyl]-1,3-thiazol-2-yl}methoxy)benzamide]
MIC [1]: < 1.01 µg/mL
MIC [2]: 0.25 µg/mL (≈ 0.581 µM)
MIC [3]: 0.185 µg/mL (≈ 0.43 µM)

NC(=O)c1c(F)ccc(OCc2nc(-c3ccc(Cl)cc3)ns2)c1F [Compound 19, 3-{[3-(4-chlorophenyl)-1,2,4-thiadiazol-5-yl]methoxy}-2,6-difluorobenzamide]
MIC [1]: < 1.01 µg/mL
MIC [2]: 2 µg/mL (≈ 5.24 µM)
MIC [3]: 1 µg/mL (≈ 2.62 µM)

NC(=O)c1c(F)ccc(OCc2nc(-c3ccc(OC(F)(F)F)cc3)ns2)c1F [Compound 20, 2,6-difluoro-3-({3[4-(trifluoromethoxy)phenyl]-1,2,4-thiadiazol-5-yl}methoxy)benzamide]
MIC [1]: < 1.01 µg/mL
MIC [2]: 0.06 µg/mL (≈ 0.139 µM)
MIC [3]: 0.06 µg/mL (≈ 0.139 µM)

N/C(=N\O)c1c(F)ccc(OCc2nc(-c3ccc(Cl)cc3)ns2)c1F [Compound 21, 3-{[3-(4-chlorophenyl)-1,2,4-thiadiazol-5-yl]methoxy}-2,6-difluoro-N′-hydroxybenzene-carboximidamide]
MIC [1]: < 1.01 µg/mL
MIC [2]: 5 µg/mL (≈ 12.6 µM)
MIC [3]: 5 µg/mL (≈ 12.6 µM)

NC(=O)c1c(F)ccc(OC(CO)c2nc(-c3ccc(Cl)cc3)c(Br)o2)c1F (stereo not drawn) [Compound 33, 3-{1-[5-bromo-4-(4-chlorophenyl)-1,3-oxazol-2-yl]-2-hydroxyethoxy}-2,6-difluorobenzamide]
MIC [1]: < 1.01 µg/mL
MIC [2]: 0.5 µg/mL (≈ 1.06 µM)
MIC [3]: 0.12 µg/mL (≈ 0.253 µM)

CN(C)C(=O)OCC(Oc1ccc(F)c(C(N)=O)c1F)c1nc(-c2ccc(C(F)(F)F)cc2)c(Br)o1 (stereo not drawn) [Compound 49, 2-{5-bromo-4-[4-(trifluoromethyl)phenyl]-1,3-oxazol-2-yl}-2-(3-carbamoyl-2,4-difluorophenoxy)ethyl dimethylcarbamate]
MIC [1]: 1 to 4 µg/mL (≈ 1.73 to 6.92 µM)
MIC [2]: 2 µg/mL (≈ 3.46 µM)
MIC [3]: 2 µg/mL (≈ 3.46 µM)

CC(=O)OCC(Oc1cccc(C(N)=O)c1F)c1nc(-c2ccc(C(F)(F)F)cc2)c(Br)o1 (stereo not drawn) [Compound 57, 2-{5-bromo-4-[4-(trifluoromethyl)phenyl]-1,3-oxazol-2-yl}-2-(3-carbamoyl-2-fluorophenoxy)ethyl acetate]
MIC [1]: < 1.01 µg/mL
MIC [2]: 0.5 µg/mL
MIC [3]: 0.5 µg/mL

COc1ncccc1CNC(=O)OCC(Oc1ccc(F)c(C(N)=O)c1F)c1nc(-c2ccc(C(F)(F)F)cc2)c(Br)o1 (stereo not drawn) [Compound 74, 2-{5-bromo-4-[4-(trifluoromethyl)phenyl]-1,3-oxazol-2-yl}-2-(3-carbamoyl-2,4-difluorophenoxy)ethyl [(2-methoxypyridin-3-yl)methyl]carbamate]
MIC [1]: < 1.01 µg/mL
MIC [2]: 0.5 µg/mL (≈ 0.745 µM)
MIC [3]: 0.5 µg/mL (≈ 0.745 µM)

Cn1cccc1CNC(=O)OCC(Oc1ccc(F)c(C(N)=O)c1F)c1nc(-c2ccc(C(F)(F)F)cc2)c(Br)o1 (stereo not drawn) [Compound 80, 2-{5-bromo-4-[4-(trifluoromethyl)phenyl]-1,3-oxazol-2-yl}-2-(3-carbamoyl-2,4-difluorophenoxy)ethyl [(1-methyl-1H-pyrrol-2-yl)methyl]carbamate]
MIC [1]: < 1.01 µg/mL
MIC [2]: 0.5 µg/mL (≈ 0.777 µM)
MIC [3]: 0.5 µg/mL (≈ 0.777 µM)

NC(=O)c1c(F)ccc(OCc2nc(-c3ccc(Cl)cc3)c(Br)o2)c1F [Compound 104, 3-{[5-bromo-4-(4-chlorophenyl)-1,3-oxazol-2-yl]methoxy}-2,6-difluorobenzamide]
MIC [1]: < 1.01 µg/mL
MIC [2]: 0.12 µg/mL (≈ 0.27 µM)
MIC [3]: 0.12 µg/mL (≈ 0.27 µM)

NC(=O)c1c(F)ccc(OCc2nc(-c3ccc(OC(F)(F)F)cc3)c(Br)s2)c1F [Compound 105, 3-({5-bromo-4-[4-(trifluoromethoxy)phenyl]-1,3-thiazol-2-yl}methoxy)-2,6-difluorobenzamide]
MIC [1]: < 1.01 µg/mL
MIC [2]: 1 µg/mL (≈ 1.96 µM)
MIC [3]: 0.5 µg/mL (≈ 0.982 µM)

CCCCCCCCCOc1ccc(F)c(/C(N)=N/O)c1F [Compound 106, 2,6-difluoro-N′-hydroxy-3-(nonyloxy)benzenecarboximidamide]
MIC [1]: < 1.01 µg/mL
MIC [2]: 0.5 µg/mL (≈ 1.59 µM)
MIC [3]: 0.5 µg/mL (≈ 1.59 µM)

NC(=O)c1c(F)ccc(OCc2ccn(-c3ccc(OC(F)(F)F)cc3)n2)c1F [Compound 108, 2,6-difluoro-3-({1-[4-(trifluoromethoxy)phenyl]-1H-pyrazol-3-yl}methoxy)benzamide]
MIC [1]: < 1.01 µg/mL
MIC [2]: 0.5 µg/mL (≈ 1.21 µM)
MIC [3]: 0.5 µg/mL (≈ 1.21 µM)

NC(=O)c1c(F)ccc(OCc2nc(-c3ccc(S(F)(F)(F)(F)F)cc3)ns2)c1F [Compound 110, 2,6-difluoro-3-({3-[4-(pentafluoro-lambda~6~- sulfanyl)phenyl]-1,2,4-thiadiazol-5-yl}methoxy)benzamide]
MIC [1]: < 1.01 µg/mL
MIC [2]: 0.06 µg/mL (≈ 0.127 µM)
MIC [3]: 0.06 µg/mL (≈ 0.127 µM)

NC(=O)c1c(F)ccc(OCCc2nc(-c3ccc(OC(F)(F)F)cc3)cs2)c1F [Compound 111, 2,6-difluoro-3-(2-{4-[4-(trifluoromethoxy)phenyl]-1,3-thiazol-2-yl}ethoxy)benzamide]
MIC [1]: < 1.01 µg/mL
MIC [2]: 0.25 µg/mL (≈ 0.563 µM)
MIC [3]: 0.25 µg/mL (≈ 0.563 µM)

NC(=O)c1c(F)ccc(OCc2nc(-c3ccc(S(F)(F)(F)(F)F)cc3)cs2)c1F [Compound 112, 2,6-difluoro-3-({4-[4-(pentafluoro-lambda~6~- sulfanyl)phenyl]-1,3-thiazol-2-yl}methoxy)benzamide]
MIC [1]: < 1.01 µg/mL
MIC [2]: 0.12 µg/mL (≈ 0.254 µM)
MIC [3]: 0.12 µg/mL (≈ 0.254 µM)

NC(=O)c1c(F)ccc(OCCCOc2ccc(OC(F)(F)F)cc2)c1F [Compound 126, 2,6-difluoro-3-{3-[4-(trifluoromethoxy)phenoxy]propoxy}benzamide]
MIC [1]: < 1.01 µg/mL
MIC [2]: 0.5 µg/mL (≈ 1.28 µM)
MIC [3]: 0.5 µg/mL (≈ 1.28 µM)

NC(=O)c1c(F)ccc(OCCCCOc2ccc(Cl)cc2)c1F [Compound 127, 3-[4-(4-chlorophenoxy)butoxy]-2,6-difluoro-benzamide]
MIC [1]: < 1.01 µg/mL
MIC [2]: 0.25 µg/mL (≈ 0.703 µM)
MIC [3]: 0.25 µg/mL (≈ 0.703 µM)

NC(=O)c1c(F)ccc(OCCCCOc2ccc(OC(F)(F)F)cc2)c1F [Compound 128, 2,6-difluoro-3-{4-[4-(trifluoromethoxy)phenoxy]butoxy}benzamide]
MIC [1]: < 1.01 µg/mL
MIC [2]: 0.12 µg/mL (≈ 0.296 µM)
MIC [3]: 0.06 µg/mL (≈ 0.148 µM)

NC(=O)c1c(F)ccc(OCCCCOc2ccc(C(F)(F)F)cc2)c1F [Compound 129, 2,6-difluoro-3-{4-[4 (trifluoromethyl)phenoxy]butoxy}benzamide]
MIC [1]: < 1.01 µg/mL
MIC [2]: 0.06 µg/mL (≈ 0.154 µM)
MIC [3]: 0.06 µg/mL (≈ 0.154 µM)

NC(=O)c1c(F)ccc(OCCCCCOc2ccc(Cl)cc2)c1F [Compound 130, 3-{[5-(4-chlorophenoxy)pentyl]oxy}-2,6-difluorobenzamide]
MIC [1]: < 1.01 µg/mL
MIC [2]: 0.5 µg/mL (≈ 1.35 µM)
MIC [3]: 0.5 µg/mL (≈ 1.35 µM)

NC(=O)c1c(F)ccc(OCCCCCOc2ccc(OC(F)(F)F)cc2)c1F [Compound 131, 2,6-difluoro-3-({5-[4-(trifluoromethoxy)phenoxy]pentyl}oxy) benzamide]
MIC [1]: < 1.01 µg/mL
MIC [2]: 0.25 µg/mL (≈ 0.596 µM)
MIC [3]: 0.25 µg/mL (≈ 0.596 µM)

NC(=O)c1c(F)ccc(OCCCCCOc2ccc(C(F)(F)F)cc2)c1F [Compound 132, 2,6-difluoro-3-({5-[4 (trifluoromethyl)phenoxy]pentyl}oxy) benzamide]
MIC [1]: < 1.01 µg/mL
MIC [2]: 0.5 µg/mL (≈ 1.24 µM)
MIC [3]: 0.25 µg/mL (≈ 0.62 µM)

NC(=O)c1c(F)ccc(OCCCCCCOc2ccc(Cl)cc2)c1F [Compound 133, 3-{[6-(4-chlorophenoxy)hexyl]oxy}-2,6-difluorobenzamide]
MIC [1]: < 1.01 µg/mL
MIC [2]: 0.5 µg/mL (≈ 1.3 µM)
MIC [3]: 0.5 µg/mL (≈ 1.3 µM)

NC(=O)c1c(F)ccc(OCCCCCCOc2ccc(OC(F)(F)F)cc2)c1F [Compound 134, 2,6-difluoro-3-({6-[4 (trifluoromethoxy)phenoxy]hexyl}oxy) benzamide]
MIC [1]: < 1.01 µg/mL
MIC [2]: 0.25 µg/mL (≈ 0.577 µM)
MIC [3]: 0.25 µg/mL (≈ 0.577 µM)

NC(=O)c1c(F)ccc(OCCCCCCOc2ccc(C(F)(F)F)cc2)c1F [Compound 135, 2,6-difluoro-3-({6-[4-(trifluoromethyl)phenoxy]hexyl}oxy)benzamide]
MIC [1]: < 1.01 µg/mL
MIC [2]: 0.5 µg/mL (≈ 1.2 µM)
MIC [3]: 0.5 µg/mL (≈ 1.2 µM)

NC(=O)c1c(F)ccc(OCCOCCOc2ccc(Cl)cc2)c1F [Compound 136, 3-{2-[2-(4-chlorophenoxy)ethoxy]ethoxy}-2,6-difluorobenzamide]
MIC [1]: 1 to 4 µg/mL (≈ 2.69 to 10.8 µM)
MIC [2]: 4 µg/mL (≈ 10.8 µM)
MIC [3]: 4 µg/mL (≈ 10.8 µM)

CN(CCCCOc1ccc(OC(F)(F)F)cc1)c1ccc(F)c(C(N)=O)c1F [Compound 152, 2,6-difluoro-3-(methyl{4-[4-(trifluoromethoxy)phenoxy]butyl}amino) benzamide]
MIC [1]: < 1.01 µg/mL
MIC [2]: 0.5 µg/mL (≈ 1.2 µM)
MIC [3]: 0.5 µg/mL (≈ 1.2 µM)

NC(=O)c1c(F)ccc(OCCCCCc2ccc(C(F)(F)F)cc2)c1F [Compound 155, 2,6-difluoro-3-({5-[4-(trifluoromethyl)phenyl]pentyl}oxy)benzamide]
MIC [1]: < 1.01 µg/mL
MIC [2]: 0.12 µg/mL (≈ 0.31 µM)
MIC [3]: 0.12 µg/mL (≈ 0.31 µM)

NC(=O)c1c(F)ccc(OCCCCOc2ccc(S(F)(F)(F)(F)F)cc2)c1F [Compound 159]
MIC [1]: < 1.01 µg/mL
MIC [2]: 0.12 µg/mL (≈ 0.268 µM)
MIC [3]: 0.12 µg/mL (≈ 0.268 µM)

NC(=O)c1c(F)ccc(OCC#CCOc2ccc(OC(F)(F)F)cc2)c1F [Compound 160, 2,6-difluoro-3-({4-[4-(trifluoromethoxy)phenoxy]but-2-yn-1-yl}oxy)benzamide]
MIC [1]: < 1.01 µg/mL
MIC [2]: 0.25 µg/mL (≈ 0.623 µM)
MIC [3]: 0.25 µg/mL (≈ 0.623 µM)

NC(=O)c1c(F)ccc(OCCOCCOc2ccc(S(F)(F)(F)(F)F)cc2)c1F [Compound 161, 2,6-difluoro-3-(2-{2-[4-(pentafluoro-lambda~6~-sulfanyl)phenoxy]ethoxy}ethoxy)benzamide]
MIC [1]: < 1.01 µg/mL
MIC [2]: 1 µg/mL (≈ 2.16 µM)
MIC [3]: 2 µg/mL (≈ 4.32 µM)

Cc1sc(COc2ccc(F)c(C(N)=O)c2F)nc1-c1ccc(Cl)cc1 [Compound 189, 3-{[4-(4-chlorophenyl)-5-methyl-1,3-thiazol-2-yl]methoxy}-2,6-difluorobenzamide]
MIC [1]: < 1.01 µg/mL
MIC [2]: 1 µg/mL (≈ 2.53 µM)
MIC [3]: 1 µg/mL (≈ 2.53 µM)
